Results: ChEMBL document CHEMBL4152339, “Design and synthesis of novel 1H-tetrazol-5-amine based potent antimicrobial agents: DNA topoisomerase IV and gyrase affinity evaluation supported by molecular docking studies” (Eur J Med Chem, 2018)

Experiments:
[1] = test system: Staphylococcus epidermidis; assay: Antibacterial activity against Staphylococcus epidermidis ATCC 35984 after 18 hrs by CLSI […] method; assay type: functional; details: ATCC 35984, 18 h
Escherichia coli [2] = assay: Antibacterial activity against Escherichia coli ML 5 after 18 hrs by CLSI disc diffusion method; assay type: functional; details: ML 5, 18 h
Pseudomonas aeruginosa [3] = assay: Antibacterial activity against Pseudomonas aeruginosa 31m after 18 hrs by CLSI disc diffusion method; assay type: functional
Pseudomonas aeruginosa [4] = assay: Antibacterial activity against Pseudomonas aeruginosa ATCC 15442 after 18 hrs by CLSI disc diffusion method; assay type: functional; details: ATCC 15442, 18 h
HaCaT = assay: Cytotoxicity activity against human HaCaT cells assessed as reduction in cell viability after 72 hrs by MTT assay; assay type: cell-based
[5] = Selectivity index, ratio of IC50 for human HaCaT cells to MIC for Escherichia coli ATCC 10538; assay type: toxicity; details: read-out: Selectivity Index
Staphylococcus aureus [6] = assay: Antibacterial activity against Staphylococcus aureus 585 after 18 hrs by CLSI disc diffusion method; assay type: functional; details: Staphylococcus aureus, 585, 18 h
Staphylococcus aureus [7] = assay: Antibacterial activity against Staphylococcus aureus 497 after 18 hrs by CLSI disc diffusion method; assay type: functional; details: Staphylococcus aureus, 497, 18 h
Bacillus cereus = assay: Antibacterial activity against Bacillus cereus ATCC 11778 after 18 hrs by CLSI disc diffusion method; assay type: functional; details: ATCC 11778, 18 h
[8] = Selectivity index, ratio of IC50 for human HaCaT cells to MIC for Bacillus subtilis ATCC 6633; assay type: toxicity; details: read-out: Selectivity Index
Pseudomonas aeruginosa [9] = assay: Antibacterial activity against Pseudomonas aeruginosa 6m after 18 hrs by CLSI disc diffusion method; assay type: functional
Escherichia coli [10] = assay: Antibacterial activity against Escherichia coli ATCC 10538 after 18 hrs by CLSI disc diffusion method; assay type: functional; details: ATCC 10538, 18 h
[11] = test system: Staphylococcus epidermidis; assay: Antibacterial activity against Staphylococcus epidermidis 511 after 18 hrs by CLSI disc diffusion method; assay type: functional; details: Staphylococcus epidermidis, 511, 18 h
Staphylococcus aureus [12] = assay: Antibacterial activity against Staphylococcus aureus 586 after 18 hrs by CLSI disc diffusion method; assay type: functional; details: Staphylococcus aureus, 586, 18 h
[13] = test system: Staphylococcus epidermidis; assay: Antibacterial activity against Staphylococcus epidermidis 431 after 18 hrs by CLSI disc diffusion method; assay type: functional; details: Staphylococcus epidermidis, 431, 18 h
[14] = test system: Staphylococcus epidermidis; assay: Antibacterial activity against Staphylococcus epidermidis 510 after 18 hrs by CLSI disc diffusion method; assay type: functional; details: Staphylococcus epidermidis, 510, 18 h
[15] = test system: Staphylococcus epidermidis; assay: Antibacterial activity against Staphylococcus epidermidis 471 after 18 hrs by CLSI disc diffusion method; assay type: functional; details: Staphylococcus epidermidis, 471, 18 h
Micrococcus luteus [16] = assay: Antibacterial activity against Micrococcus luteus ATCC 10240 after 18 hrs by CLSI disc diffusion method; assay type: functional; details: ATCC 10240, 18 h
Escherichia coli [17] = assay: Antibacterial activity against Escherichia coli ML 16 after 18 hrs by CLSI disc diffusion method; assay type: functional; details: ML 16, 18 h
[18] = test system: Staphylococcus epidermidis; assay: Antibacterial activity against Staphylococcus epidermidis 432 after 18 hrs by CLSI disc diffusion method; assay type: functional; details: Staphylococcus epidermidis, 432, 18 h
Pseudomonas aeruginosa [19] = assay: Antibacterial activity against Pseudomonas aeruginosa 16m after 18 hrs by CLSI disc diffusion method; assay type: functional
Pseudomonas aeruginosa [20] = assay: Antibacterial activity against Pseudomonas aeruginosa 18m after 18 hrs by CLSI disc diffusion method; assay type: functional
Staphylococcus aureus [21] = assay: Antibacterial activity against Staphylococcus aureus 537 after 18 hrs by CLSI disc diffusion method; assay type: functional; details: Staphylococcus aureus, 537, 18 h
Pseudomonas aeruginosa [22] = assay: Antibacterial activity against Pseudomonas aeruginosa 10m after 18 hrs by CLSI disc diffusion method; assay type: functional
[23] = test system: Staphylococcus epidermidis; assay: Antibacterial activity against Staphylococcus epidermidis 469 after 18 hrs by CLSI disc diffusion method; assay type: functional; details: Staphylococcus epidermidis, 469, 18 h
Micrococcus luteus [24] = assay: Antibacterial activity against Micrococcus luteus ATCC 9341 after 18 hrs by CLSI disc diffusion method; assay type: functional; details: ATCC 9341, 18 h
[25] = Selectivity index, ratio of IC50 for human HaCaT cells to MIC for Staphylococcus aureus NCTC 4163; assay type: toxicity; details: read-out: Selectivity Index
Escherichia coli [26] = assay: Antibacterial activity against Escherichia coli ML 9 after 18 hrs by CLSI disc diffusion method; assay type: functional; details: ML 9, 18 h
[27] = test system: Staphylococcus epidermidis; assay: Antibacterial activity against Staphylococcus epidermidis ATCC 12228 after 18 hrs by CLSI disc diffusion method; assay type: functional; details: ATCC 12228, 18 h
Pseudomonas aeruginosa [28] = assay: Antibacterial activity against Pseudomonas aeruginosa 11m after 18 hrs by CLSI disc diffusion method; assay type: functional
Staphylococcus aureus [29] = assay: Antibacterial activity against Staphylococcus aureus 572 after 18 hrs by CLSI disc diffusion method; assay type: functional; details: Staphylococcus aureus, 572, 18 h
Escherichia coli [30] = assay: Antibacterial activity against Escherichia coli ML 6 after 18 hrs by CLSI disc diffusion method; assay type: functional; details: ML 6, 18 h
Escherichia coli [31] = assay: Antibacterial activity against Escherichia coli ML 15 after 18 hrs by CLSI disc diffusion method; assay type: functional; details: ML 15, 18 h
[32] = test system: Staphylococcus epidermidis; assay: Antibacterial activity against Staphylococcus epidermidis 433 after 18 hrs by CLSI disc diffusion method; assay type: functional; details: Staphylococcus epidermidis, 433, 18 h
Escherichia coli [33] = assay: Antibacterial activity against Escherichia coli ML 12 after 18 hrs by CLSI disc diffusion method; assay type: functional; details: ML 12, 18 h
DNA gyrase = DNA gyrase (Staphylococcus aureus, UniProt P0A0K8+P20831); assay: Inhibition of Staphylococcus aureus DNA gyrase supercoiling activity using pBR322 DNA as substrate after 30 mins by ethidium bromide staining based agarose gel electrophoresis method; assay type: protein-complex assay
Sequence of DNA gyrase (P0A0K8 whole entry): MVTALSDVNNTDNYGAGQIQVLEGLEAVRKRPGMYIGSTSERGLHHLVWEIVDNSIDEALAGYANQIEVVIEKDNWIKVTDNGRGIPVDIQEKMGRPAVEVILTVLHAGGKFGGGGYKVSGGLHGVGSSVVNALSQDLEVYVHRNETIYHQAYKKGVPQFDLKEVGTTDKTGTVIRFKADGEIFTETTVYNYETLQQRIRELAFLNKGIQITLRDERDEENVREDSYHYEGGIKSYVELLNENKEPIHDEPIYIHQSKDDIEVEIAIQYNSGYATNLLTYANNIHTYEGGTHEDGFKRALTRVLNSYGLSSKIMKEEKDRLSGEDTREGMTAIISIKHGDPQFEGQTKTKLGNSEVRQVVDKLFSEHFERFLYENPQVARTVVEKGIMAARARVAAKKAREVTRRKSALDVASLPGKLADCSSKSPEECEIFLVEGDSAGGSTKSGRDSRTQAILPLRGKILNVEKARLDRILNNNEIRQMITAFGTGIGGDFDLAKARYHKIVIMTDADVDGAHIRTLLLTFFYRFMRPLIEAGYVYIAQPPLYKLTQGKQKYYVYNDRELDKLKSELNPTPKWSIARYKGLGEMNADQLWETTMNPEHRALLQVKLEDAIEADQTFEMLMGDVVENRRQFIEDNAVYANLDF
Sequence of DNA gyrase (P20831 whole entry): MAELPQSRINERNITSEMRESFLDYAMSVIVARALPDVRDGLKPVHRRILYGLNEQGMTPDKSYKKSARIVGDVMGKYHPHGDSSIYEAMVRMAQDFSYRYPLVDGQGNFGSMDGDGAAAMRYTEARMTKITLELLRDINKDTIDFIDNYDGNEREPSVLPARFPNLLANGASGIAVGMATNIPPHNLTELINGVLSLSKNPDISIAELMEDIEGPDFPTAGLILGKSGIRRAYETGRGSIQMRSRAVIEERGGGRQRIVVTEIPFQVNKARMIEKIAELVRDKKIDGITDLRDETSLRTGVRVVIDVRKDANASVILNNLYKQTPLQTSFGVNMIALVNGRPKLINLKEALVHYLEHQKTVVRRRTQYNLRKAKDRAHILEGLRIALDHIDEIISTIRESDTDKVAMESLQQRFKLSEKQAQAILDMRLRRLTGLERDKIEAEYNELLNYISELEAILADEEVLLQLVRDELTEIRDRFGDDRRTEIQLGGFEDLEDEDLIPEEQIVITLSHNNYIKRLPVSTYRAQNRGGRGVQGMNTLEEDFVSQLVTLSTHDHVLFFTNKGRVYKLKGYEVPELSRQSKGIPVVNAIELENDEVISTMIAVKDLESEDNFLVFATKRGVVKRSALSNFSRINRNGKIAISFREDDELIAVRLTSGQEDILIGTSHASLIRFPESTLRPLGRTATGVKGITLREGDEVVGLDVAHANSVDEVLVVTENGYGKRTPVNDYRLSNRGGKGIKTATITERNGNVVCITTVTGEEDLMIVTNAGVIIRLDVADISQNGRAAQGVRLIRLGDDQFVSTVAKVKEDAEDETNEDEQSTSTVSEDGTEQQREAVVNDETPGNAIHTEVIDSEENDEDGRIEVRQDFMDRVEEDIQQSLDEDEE

[34] = Selectivity index, ratio of IC50 for human HaCaT cells to MIC for Micrococcus luteus ATCC 10240; assay type: toxicity; details: read-out: Selectivity Index
[35] = Selectivity index, ratio of IC50 for human HaCaT cells to MIC for Enterococcus hirae ATCC 10541; assay type: toxicity; details: read-out: Selectivity Index
Bacillus spizizenii = assay: Antibacterial activity against Bacillus subtilis ATCC 6633 after 18 hrs by CLSI disc diffusion method; assay type: functional; details: ATCC 6633, 18 h
Staphylococcus aureus [36] = assay: Antibacterial activity against Staphylococcus aureus 496 after 18 hrs by CLSI disc diffusion method; assay type: functional; details: Staphylococcus aureus, 496, 18 h
[37] = test system: Bordetella bronchiseptica; assay: Antibacterial activity against Bordetella bronchiseptica ATCC 4617 after 18 hrs by CLSI disc diffusion method; assay type: functional; details: ATCC 4617, 18 h
Enterococcus hirae = assay: Antibacterial activity against Enterococcus hirae ATCC 10541 after 18 hrs by CLSI disc diffusion method; assay type: functional; details: ATCC 10541, 18 h
Staphylococcus aureus [38] = assay: Antibacterial activity against Staphylococcus aureus 495 after 18 hrs by CLSI disc diffusion method; assay type: functional; details: Staphylococcus aureus, 495, 18 h
Escherichia coli [39] = assay: Antibacterial activity against Escherichia coli ML 17 after 18 hrs by CLSI disc diffusion method; assay type: functional; details: ML 17, 18 h
[40] = Inhibition of Staphylococcus aureus DNA topoisomerase 4 using Kinetoplast DNA as substrate after 30 mins by ethidium bromide staining based agarose gel electrophoresis method
Pseudomonas aeruginosa [41] = assay: Antibacterial activity against Pseudomonas aeruginosa 7m after 18 hrs by CLSI disc diffusion method; assay type: functional
Staphylococcus aureus [42] = assay: Antibacterial activity against Staphylococcus aureus ATCC 25923 after 18 hrs by CLSI disc diffusion method; assay type: functional; details: ATCC 25923, 18 h
Staphylococcus aureus [43] = assay: Antibacterial activity against Staphylococcus aureus ATCC 6538 after 18 hrs by CLSI disc diffusion method; assay type: functional; details: ATCC 6538, 18 h
A549 = assay: Cytotoxicity activity against human A549 cells assessed as reduction in cell viability after 72 hrs by MTT assay; assay type: cell-based; details: A549, 72 h
[44] = Selectivity index, ratio of IC50 for human HaCaT cells to MIC for Bordetella bronchiseptica ATCC 4617; assay type: toxicity; details: read-out: Selectivity Index
[45] = Selectivity index, ratio of IC50 for human HaCaT cells to MIC for Proteus vulgaris NCTC 4635; assay type: toxicity; details: read-out: Selectivity Index
Pseudomonas aeruginosa [46] = assay: Antibacterial activity against Pseudomonas aeruginosa ATCC 27853 after 18 hrs by CLSI disc diffusion method; assay type: functional; details: ATCC 27853, 18 h
Pseudomonas aeruginosa [47] = assay: Antibacterial activity against Pseudomonas aeruginosa 12m after 18 hrs by CLSI disc diffusion method; assay type: functional
Staphylococcus aureus [48] = assay: Antibacterial activity against Staphylococcus aureus 498 after 18 hrs by CLSI disc diffusion method; assay type: functional; details: Staphylococcus aureus, 498, 18 h
Proteus vulgaris = assay: Antibacterial activity against Proteus vulgaris NCTC 4635 after 18 hrs by CLSI disc diffusion method; assay type: functional; details: NCTC 4635, 18 h
[49] = test system: Staphylococcus epidermidis; assay: Antibacterial activity against Staphylococcus epidermidis 423 after 18 hrs by CLSI disc diffusion method; assay type: functional; details: Staphylococcus epidermidis, 423, 18 h
Escherichia coli [50] = assay: Antibacterial activity against Escherichia coli ML 8 after 18 hrs by CLSI disc diffusion method; assay type: functional; details: ML 8, 18 h
Enterococcus faecalis = assay: Antibacterial activity against Enterococcus faecalis ATCC 29212 after 18 hrs by CLSI disc diffusion method; assay type: functional; details: ATCC 29212, 18 h
Staphylococcus aureus [51] = assay: Antibacterial activity against Staphylococcus aureus NCTC 4163 after 18 hrs by CLSI disc diffusion method; assay type: functional; details: NCTC 4163, 18 h

Fc1ccc(-n2nnnc2NCc2ccco2)cc1Cl
84: selectivity ratio [34] | selectivity ratio [45]
27 µM: MIC (Pseudomonas aeruginosa [22]) | MIC (Pseudomonas aeruginosa [28])
3.06 µM: IC50 (DNA gyrase)
80 µM: IC50 (A549)
218 µM: MIC (Pseudomonas aeruginosa [4])
2.6 µg/mL: IC50 [40]
1 µM: MIC (Micrococcus luteus [16]) | MIC (Micrococcus luteus [24]) | MIC (Proteus vulgaris)
28: selectivity ratio [8]
84 µM: IC50 (HaCaT)
12: selectivity ratio [5] | selectivity ratio [25] | selectivity ratio [44]
6: selectivity ratio [35]
14 µM: MIC (Staphylococcus aureus [6]) | MIC (Staphylococcus aureus [7]) | MIC [11] | MIC (Staphylococcus aureus [12]) | MIC [14] | MIC (Pseudomonas aeruginosa [19]) | MIC (Pseudomonas aeruginosa [20]) | MIC (Escherichia coli [26]) | MIC (Staphylococcus aureus [29]) | MIC [32] | MIC (Enterococcus hirae) | MIC [49]
54 µM: MIC (Escherichia coli [30]) | MIC (Escherichia coli [31]) | MIC (Escherichia coli [33])
3 µM: MIC [1] | MIC (Bacillus cereus) | MIC (Bacillus spizizenii)
7 µM: MIC (Escherichia coli [2]) | MIC (Pseudomonas aeruginosa [3]) | MIC (Pseudomonas aeruginosa [9]) | MIC (Escherichia coli [10]) | MIC [13] | MIC [15] | MIC (Escherichia coli [17]) | MIC [18] | MIC (Staphylococcus aureus [21]) | MIC [23] | MIC [27] | MIC (Staphylococcus aureus [36]) | MIC [37] | MIC (Staphylococcus aureus [38]) | MIC (Escherichia coli [39]) | MIC (Pseudomonas aeruginosa [41]) | MIC (Staphylococcus aureus [42]) | MIC (Staphylococcus aureus [43]) | MIC (Pseudomonas aeruginosa [46]) | MIC (Pseudomonas aeruginosa [47]) | MIC (Staphylococcus aureus [48]) | MIC (Escherichia coli [50]) | MIC (Enterococcus faecalis) | MIC (Staphylococcus aureus [51])

O=C(O)c1cn(C2CC2)c2cc(N3CCNCC3)c(F)cc2c1=O [CIPROFLOXACIN]
1.7 µg/mL: IC50 [40]
